“Also recorded” adds a separate entry of the source.
Legend:
RMS13 cells = assay: Cytotoxicity CellTiter-Glo; assay type: cell-based, human; settings: RMS13, Rhabdomyosarcoma
[1] = test system: SK-N-DZ neuroblastoma xenografts; assay: SK-N-DZ neuroblastoma xenograft in nu/nu mice; assay type: in vivo, mouse; settings: for tumor volume / tumor growth: SKNDZ neuroblastoma xenograft, 5 mg/kg i.v. once a week for 4 weeks
Description: (§1) The xenograft studies were performed by subcutaneous injection of SK-N-DZ (neuroblastoma, 30×10^6 cells/animal) and RMS13 (rhabdomyosarcoma, 20×10^6 cells/animal) in right flank of the male Charles River Laboratories nu/nu mice (7-8 weeks old, weight ˜20 g). Mice were treated by intravenous tail vein injection once a week for 4 weeks. The tumor sizes and body weights were monitored twice a week. Tumor volumes were calculated according to the following formula: volume=height×[…]×length×0.5236.

A2780 cells = assay: Cytotoxicity CellTiter-Glo; assay type: cell-based, human; settings: read-out: IC50 (50% growth inhibition); A2780, Ovary; 72 hours
[2] = Maximum tolerated dose study: body weight, food consumption, moribundity, MTD
Description: (§2) The mice used in MTD were given standard chow devoid of added folic acid (low folate diet) (See, Leamon C P et al., J. Pharmacol. Exp. Ther. 327: 918-925). […] Therefore we also designed a MTD study in mice treated with low folate diet. Food consumption on the day before injection (Day −1) was recorded and then it was monitored every other day. […] Blood for clinical chemistry was collected if possible. Liver, kidney and bone marrow were collected. One side of each tissue (except bone marrow) will be fixed in 4-10% formalin for future histology analysis, and the rest of tissue will be cut into pieces, snap frozen, and stored at −80° C. until analysis. Blood samples for clinical chemistry were centrifuged at 8000 rpm for 10 min at 4° C. within 1 hour of collection. Plasma was collected into 1.5 mL eppendorf tubes and stored at −80° C. until analysis. The measured parameters were alanine transaminase (ALT), aspartate transaminase (AST), alkaline phosphatase (ALP), total bilirubin, glucose, blood urea nitrogen (BUN), creatinine, and electrolytes. All experiments were housed in a virus-free, temperature controlled facility on a 12-h light-dark cycle.
The concentration versus time course of total platinum followed a two-compartment model in the mice. […] In the maximum tolerated dose studies, we observed body weight reduction in all mice due to the low folate diet (FIG. 6).

Kelly cells = assay: Cytotoxicity CellTiter-Glo; assay type: cell-based, human
A673 cells = assay: Cytotoxicity CellTiter-Glo; assay type: cell-based, human
[3] = Maximum tolerated dose study: clinical chemistry evaluation (blood cell parameters, Table 6)
Description: as §2

[4] = test system: RMS13 rhabdomyosarcoma xenografts; assay: RMS13 rhabdomyosarcoma xenograft in nu/nu mice; assay type: in vivo, mouse; settings: for tumor volume / tumor growth: RMS13 rhabdomyosarcoma xenograft, 5 mg/kg i.v. once a week for 4 weeks
Description: as §1

MG-63 cells = assay: Cytotoxicity CellTiter-Glo; assay type: cell-based, human; settings: MG-63, Osteosarcoma
OVCAR-4 cells = settings: OVCAR-4, Ovarian
Source text: (§3) The methods that were used by the DTP were described on the DTP website: (https://dtp.nci.nih.gov/discovery_development/nci-60/methodology.htm).

NCI-H226 cells = settings: NCI-H226, Non-Small Cell Lung
Source text: as §3

SR cells = settings: Leukemia
Source text: as §3

786-0 cells = settings: 786-0, Renal
Source text: as §3

RPMI-8226 cells = settings: RPMI-8226, Leukemia
Source text: as §3

UACC-257 cells = settings: UACC-257, Melanoma
Source text: as §3

K-562 cells = settings: K-562, Leukemia
Source text: as §3

IGROV1 cells = settings: IGROV1, Ovarian
Source text: as §3

SNB-75 cells = settings: SNB-75, Central Nervous System
Source text: as §3

SF-539 cells = settings: SF-539, Central Nervous System
Source text: as §3

[5] = read-out: IC50 (50% growth inhibition), 72 hours

[Pt(DMSO)methotrexate(Cl)] [SM-69]
GI50 (RMS13 cells): 4100 ± 2300 nM | IC50 (RMS13 cells; [5]): 4100 ± 2300 nM | tumor volume / tumor growth ([1]; 5 mg/kg): significantly different compared with other groups; also recorded: significantly lower compared with SM-70 | tumor volume / tumor growth ([1]; listed as AT-69, 5 mg/kg): significantly reduces NB tumor growth; also recorded: inhibited tumor growth; also recorded: more potent than cisplatin | survival ([1]; SKNDZ xenograft model, 5 mpk, listed as AT-69, 5 mg/kg): significant increase; also recorded: significantly increase survival; also recorded: significant difference in survival; also recorded: increase survival rate | IC50 (A2780 cells): 1200 ± 200 nM | body weight reduction compared with saline and vehicle treated ([2]; 2.5 mg/kg once a week, low folate diet): similar | Body weight (% of vehicle) over 30-days ([2]; 2.5, 5, 7.5 mpk): significant body weight loss | cumulative food consumption over 30-days ([2]; 2.5, 5, 7.5 mpk, mouse model): dose-dependently alter food consumption | maximum tolerated dose ([2]; i.v. once a week, mice on low folate diet): approximately 5 mg/kg | GI50 (Kelly cells; Neuroblastoma): 3700 ± 2700 nM | IC50 (Kelly cells; read-out: IC50 (50% growth inhibition), Neuroblastoma, 72 hours): 3700 ± 2700 nM | GI50 (A673 cells; A673, Ewing's sarcoma): 300 ± 300 nM | IC50 (A673 cells; read-out: IC50 (50% growth inhibition), A673, Ewing's Sarcoma, 72 hours): 300 ± 300 nM | RDWa ([3]; 2.5 mpk i.v. once a week): 30.35 | granulocytes (GRAN %) ([3]; 2.5 mpk i.v. once a week): 31.88% | granulocytes (GRAN) ([3]; 2.5 mpk i.v. once a week): 3.55 | hematocrit (HCT) ([3]; 2.5 mpk i.v. once a week): 46.20 | hemoglobin (HGB) ([3]; 2.5 mpk i.v. once a week): 16.20 | lymphocytes (LYM %) ([3]; 2.5 mpk i.v. once a week): 60.70% | lymphocytes (LYM) ([3]; 2.5 mpk i.v. once a week): 6.65 | mean corpuscular hemoglobin (MCH) ([3]; 2.5 mpk i.v. once a week): 15.65 | mean corpuscular hemoglobin concentration (MCHC) ([3]; 2.5 mpk i.v. once a week): 35.08 | mean corpuscular volume (MCV) ([3]; 2.5 mpk i.v. once a week): 44.68 | mean platelet volume (MPV) ([3]; 2.5 mpk i.v. once a week): 6.68 | monocytes (MONO %) ([3]; 2.5 mpk i.v. once a week): 7.43% | monocytes (MONO) ([3]; 2.5 mpk i.v. once a week): 0.83 | platelet count (PLT) ([3]; 2.5 mpk i.v. once a week): 193.00 | red blood cell count (RBC) ([3]; 2.5 mpk i.v. once a week): 10.34 | red cell distribution width (RDW %) ([3]; 2.5 mpk i.v. once a week): 21.53% | white blood cell count (WBC) ([3]; 2.5 mpk i.v. once a week): 11.03 | RDWa ([3]; 5 mpk i.v. once a week): 30.10 | granulocytes (GRAN %) ([3]; 5 mpk i.v. once a week): 33.28% | granulocytes (GRAN) ([3]; 5 mpk i.v. once a week): 3.55 | hematocrit (HCT) ([3]; 5 mpk i.v. once a week): 47.65 | hemoglobin (HGB) ([3]; 5 mpk i.v. once a week): 17.08 | lymphocytes (LYM %) ([3]; 5 mpk i.v. once a week): 58.70% | lymphocytes (LYM) ([3]; 5 mpk i.v. once a week): 6.38 | mean corpuscular hemoglobin (MCH) ([3]; 5 mpk i.v. once a week): 15.73 | mean corpuscular hemoglobin concentration (MCHC) ([3]; 5 mpk i.v. once a week): 35.83 | mean corpuscular volume (MCV) ([3]; 5 mpk i.v. once a week): 43.95 | mean platelet volume (MPV) ([3]; 5 mpk i.v. once a week): 6.83 | monocytes (MONO %) ([3]; 5 mpk i.v. once a week): 8.03% | monocytes (MONO) ([3]; 5 mpk i.v. once a week): 0.88 | platelet count (PLT) ([3]; 5 mpk i.v. once a week): 182.25 | red blood cell count (RBC) ([3]; 5 mpk i.v. once a week): 10.86 | red cell distribution width (RDW %) ([3]; 5 mpk i.v. once a week): 21.93% | white blood cell count (WBC) ([3]; 5 mpk i.v. once a week): 10.80 | RDWa ([3]; 7.5 mpk i.v. once a week): 29.67 | granulocytes (GRAN %) ([3]; 7.5 mpk i.v. once a week): 36.03% | granulocytes (GRAN) ([3]; 7.5 mpk i.v. once a week): 4.40 | hematocrit (HCT) ([3]; 7.5 mpk i.v. once a week): 45.47 | hemoglobin (HGB) ([3]; 7.5 mpk i.v. once a week): 16.23 | lymphocytes (LYM %) ([3]; 7.5 mpk i.v. once a week): 56.53% | lymphocytes (LYM) ([3]; 7.5 mpk i.v. once a week): 7.07 | mean corpuscular hemoglobin (MCH) ([3]; 7.5 mpk i.v. once a week): 15.63 | mean corpuscular hemoglobin concentration (MCHC) ([3]; 7.5 mpk i.v. once a week): 35.73 | mean corpuscular volume (MCV) ([3]; 7.5 mpk i.v. once a week): 43.80 | mean platelet volume (MPV) ([3]; 7.5 mpk i.v. once a week): 6.40 | monocytes (MONO %) ([3]; 7.5 mpk i.v. once a week): 7.43% | monocytes (MONO) ([3]; 7.5 mpk i.v. once a week): 0.93 | platelet count (PLT) ([3]; 7.5 mpk i.v. once a week): 171.33 | red blood cell count (RBC) ([3]; 7.5 mpk i.v. once a week): 10.38 | red cell distribution width (RDW %) ([3]; 7.5 mpk i.v. once a week): 21.87% | white blood cell count (WBC) ([3]; 7.5 mpk i.v. once a week): 12.40 | tumor volume / tumor growth ([4]; 5 mg/kg): significantly different compared with other groups; also recorded: significantly lower compared with SM-70 | tumor volume / tumor growth ([4]; listed as AT-69, 5 mg/kg): significantly reduces RMS tumor growth; also recorded: inhibited tumor growth; also recorded: more potent than cisplatin | survival ([4]; RMS13 xenograft model, 5 mpk, listed as AT-69, 5 mg/kg): significantly increase survival; also recorded: increase survival rate; also recorded: significantly increased rate of survival | GI50 (MG-63 cells): 2400 ± 1400 nM | IC50 (MG-63 cells; [5]): 2400 ± 1400 nM | Log10GI50 (OVCAR-4 cells): −4.00 M | Log10GI50 (NCI-H226 cells): −4.61 M | Log10GI50 (SR cells): −5.52 M | Log10GI50 (786-0 cells): −5.46 M | Log10GI50 (RPMI-8226 cells): −4.94 M | Log10GI50 (UACC-257 cells): −4.01 M | Log10GI50 (K-562 cells): −5.79 M | Log10GI50 (IGROV1 cells): −4.11 M | Log10GI50 (SNB-75 cells): −4.39 M | Log10GI50 (SF-539 cells): −5.19 M
